Blank lines part the entries; values can stand above or below the molecule they belong to.
Tested on: rat aortic rings
Test: Phenylepherine (PE)-induced contraction of isolated rat aortic rings (isometric tension)
Type: cell-based
Text: Male Sprague Dawley rats (250-275 g) were sacrificed by exsanguination and thoracic aortae were removed with care to avoid damage to the endothelium, dissected free of fat and connective tissue, and cut into transverse rings, each 5 mm in length (Kyong et al., 1992, Br. J. Pharmacol. 107:983-990; Yohtaro et al., 1987, Eur. J. Pharmacol. 131:75-78; Chang et al., 1992, Br. J. Pharmacol. 107:983-990; Oyama et al., 1986, Eur. J. Pharmacol. 132:75-78). The tissues were maintained in an oxygenated (95% O2; 5% CO2) solution of Krebs-Henseliet (KH) buffer (144 millimolar NaCl, 5.9 millimolar KCl, 1.6 millimolar CaCl2, 1.2 millimolar MgSO4, 1.2 millimolar KH2PO4, 25 millimolar NaHCO3, and 11.1 millimolar D-glucose). The aortic rings were mounted to record isometric tension in a 10 milliliter bath containing KH solution under continuous aeration. The aortic rings were equilibrated for 1.5 hours at 37° C. and maintained under a resting tension of 2 g throughout the experiment. Each aortic ring was then contracted by adding phenylepherine (PE) in stepwise increments raising the concentration of PE from 10^−10 molar to 10^−5 molar. […] In every experiment, aortic rings exposed to KH buffer alone were analyzed in parallel as controls. Isometric tension was evaluated using a force displacement transducer and recorded online using a computerized system (ExperimentiaAE, Budapest, Hungary).

Molecule: ATF: amino terminal fragment of urokinase, amino acids 1-135, growth factor domain plus kringle, SEQ ID NO:4
Contractility enhancing activity in the presence of suPAR (10 nM ATF + 10 nM suPAR (FIG. 3)): abolished
Potency at enhancing vascular smooth muscle tissue contractility relative to tcuPA (compare FIGS. 2 and 3): 6 fold

EC50 (PE alone, K-H buffer, no uPA species): 29 nM
Molecule: CNC[C@H](O)c1cccc(O)c1 [PE, phenylepherine, reference compound]

Molecule: GFD: growth factor domain of uPA which binds to uPAR, SEQ ID NO:2 (SNELHQVPSNCDCLNGGTCVSNKYFSNIHWCNCPKKFGGQHCEIDKS; listed as Homo sapiens)
Effect upon PE-induced aortic contraction / vasoconstriction (10 nM uPA species (FIGS. 5A, 5B; GFD 10 nanomolar)): did not enhance contractility

B1: uPA kringle: kringle domain of uPA, amino acids 47-135, SEQ ID NO:1 (protein, listed as Homo sapiens)
chain: KTCYEGNGHFYRGKASTDTMGRPCLPWNSATVLQQTYHAHRSDALQLGLGKHNYCRNPDNRRRPWCYVQVGLKPLVQECMVHDCADGK
Direct induction of vasoconstriction (uPA kringle without PE effect (FIG. 4)): did not induce vasoconstriction directly

— patent US7425534B2, “Compositions and methods for modulating muscle cell and tissue contractility” (The Trustees of the University of Pennsylvania, priority 2000, dated 2008)
